According to ChEMBL document CHEMBL1201862, “PubChem BioAssay data set” (2004):
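In this assay, cells in 96-well plates receive the compound at five concentrations for 48 hours. Endpoints are linearly interpolated between the surrounding concentrations. GI50 is the concentration that inhibits growth by half.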 Activity calls are given as the source filed them. Cut-off read from the data, not from the text of the source: active = GI50 up to about 1.1 µM and inactive = higher.

How the values were obtained:
Assay in all cases: NCI anticancer screen, dose series, 48 h
A549 = tested on: A549
COLO 205 = tested on: COLO 205
HOP-62 = tested on: HOP-62
IGROV-1 = tested on: IGROV-1
KM12 = tested on: KM12
MOLT-4 = tested on: MOLT-4
Malme-3M = tested on: Malme-3M
NCI-H23 = tested on: NCI-H23
OVCAR-3 = tested on: OVCAR-3
OVCAR-4 = tested on: OVCAR-4
PC-3 = tested on: PC-3
SF-268 = tested on: SF-268
SF-295 = tested on: SF-295
SF-539 = tested on: SF-539
SK-OV-3 = tested on: SK-OV-3
SN12C = tested on: SN12C
SNB-19 = tested on: SNB-19
TK-10 = tested on: TK-10
UACC-257 = tested on: UACC-257
UO-31 = tested on: UO-31

Structure (SMILES) | GI50 (A549) | GI50 (COLO 205) | GI50 (HOP-62) | GI50 (IGROV-1) | GI50 (KM12) | GI50 (MOLT-4) | GI50 (Malme-3M) | GI50 (NCI-H23) | GI50 (OVCAR-3) | GI50 (OVCAR-4) | GI50 (PC-3) | GI50 (SF-268) | GI50 (SF-295) | GI50 (SF-539) | GI50 (SK-OV-3) | GI50 (SN12C) | GI50 (SNB-19) | GI50 (TK-10) | GI50 (UACC-257) | GI50 (UO-31)
CCCCCCCCCCCCCCCC(=O)OCC1OC(OC)C2NP(=O)(N(CCCl)CCCl)OC1C2O (stereo not given) | 6.11 µM (inactive) | 4.22 µM (inactive) | 1 µM (active) | 19 µM (inactive) | 16.3 µM (inactive) | 0.0288 µM (active) | 14.1 µM (inactive) | 1.21 µM (inactive) | 3.16 µM (inactive) | 8.51 µM (inactive) | 2.5 µM (inactive) | 1.67 µM (inactive) | 4.48 µM (inactive) | 0.887 µM (active) | 11.5 µM (inactive) | 1.05 µM (active) | 2.61 µM (inactive) | 10.9 µM (inactive) | 12.1 µM (inactive) | 7.36 µM (inactive)
NS(=O)(=O)c1cc(C(=O)O)c(Cl)c([N+](=O)[O-])c1Cl | > 100 µM (inactive) | > 100 µM (inactive) | > 100 µM (inactive) | > 100 µM (inactive) | > 100 µM (inactive) | > 100 µM (inactive) | > 100 µM (inactive) | > 100 µM (inactive) | > 100 µM (inactive) | > 100 µM (inactive) | > 100 µM (inactive) | > 100 µM (inactive) | > 100 µM (inactive) | > 100 µM (inactive) | > 100 µM (inactive) | > 100 µM (inactive) | > 100 µM (inactive) | > 100 µM (inactive) | > 100 µM (inactive) | > 100 µM (inactive)
COc1cc(/C=C2\N=C(c3ccccc3)N(c3ccc(S(=O)(=O)Nc4nccs4)cc3)C2=O)ccc1O | > 100 µM (inactive) | > 100 µM (inactive) | 61.8 µM (inactive) | > 100 µM (inactive) | > 100 µM (inactive) | > 100 µM (inactive) | > 100 µM (inactive) | > 100 µM (inactive) | > 100 µM (inactive) | > 100 µM (inactive) | 82.6 µM (inactive) | 51.9 µM (inactive) | > 100 µM (inactive) | 79.4 µM (inactive) | > 100 µM (inactive) | > 100 µM (inactive) | > 100 µM (inactive) | > 100 µM (inactive) | > 100 µM (inactive) | > 100 µM (inactive)
COc1ccccc1C(=O)Nc1ccc(Cl)c(C(=O)OC(C)C)c1 | 40.2 µM (inactive) | > 61.5 µM (inactive) | 48 µM (inactive) | > 66.8 µM (inactive) | 25.9 µM (inactive) | > 45.8 µM (inactive) | 4.45 µM (inactive) | 13.5 µM (inactive) | > 46.1 µM (inactive) | 42.4 µM (inactive) | 83.2 µM (inactive) | > 50.6 µM (inactive) | 36.6 µM (inactive) | > 67.3 µM (inactive) | 99.5 µM (inactive) | 52.2 µM (inactive) | > 65.3 µM (inactive) | > 80 µM (inactive) | 30.5 µM (inactive) | 18.5 µM (inactive)
O=C1OC2(C(F)(F)F)Oc3ccccc3CN2C12CCCCC2 (stereo not given) | 28.6 µM (inactive) | 18.7 µM (inactive) | 29.2 µM (inactive) | 48.4 µM (inactive) | 23.8 µM (inactive) | 18.1 µM (inactive) | 18 µM (inactive) | 25.4 µM (inactive) | 28.6 µM (inactive) | 31.8 µM (inactive) | 27.6 µM (inactive) | 35.6 µM (inactive) | 21.1 µM (inactive) | 33.4 µM (inactive) | 26.7 µM (inactive) | 24.7 µM (inactive) | 36.3 µM (inactive) | 46.2 µM (inactive) | 27 µM (inactive) | 22.9 µM (inactive)
CC(C)(C)OC(=O)NCC(=O)N(CCc1ccc(Cl)c(Cl)c1)CCN1CCCC1 | 17.7 µM (inactive) | 13.6 µM (inactive) | 13.5 µM (inactive) | 15.8 µM (inactive) | 16.3 µM (inactive) | 8.41 µM (inactive) | 19.8 µM (inactive) | 17.1 µM (inactive) | 16.7 µM (inactive) | 21.2 µM (inactive) | 15.3 µM (inactive) | 15.3 µM (inactive) | 17.3 µM (inactive) | 16.8 µM (inactive) | 14.9 µM (inactive) | 17.3 µM (inactive) | 17.8 µM (inactive) | 17.1 µM (inactive) | 15.7 µM (inactive) | 14.6 µM (inactive)
OC1(c2ccc(Cl)cc2)c2c(ccc3c2OCO3)C2=NCCN21 (stereo not given) | 70.3 µM (inactive) | 18.3 µM (inactive) | 58.3 µM (inactive) | 20.5 µM (inactive) | 19.6 µM (inactive) | 40.1 µM (inactive) | 1.23 µM (inactive) | 63 µM (inactive) | 54.6 µM (inactive) | 45.8 µM (inactive) | 42.7 µM (inactive) | 45 µM (inactive) | 36.6 µM (inactive) | 36.1 µM (inactive) | 68.1 µM (inactive) | 53.7 µM (inactive) | 73.6 µM (inactive) | 15 µM (inactive) | 19.1 µM (inactive) | 38.5 µM (inactive)
O=C1NN=C2C=C(c3ccc(Cl)cc3)CC(c3cccc(Cl)c3)C12 (stereo not given) | 16.4 µM (inactive) | 16.8 µM (inactive) | 34.4 µM (inactive) | 19.6 µM (inactive) | 28.6 µM (inactive) | 17.9 µM (inactive) | 37.2 µM (inactive) | 32.2 µM (inactive) | 29.5 µM (inactive) | 17.2 µM (inactive) | 31.8 µM (inactive) | 23.1 µM (inactive) | 18.7 µM (inactive) | 24.5 µM (inactive) | 25.1 µM (inactive) | 22.5 µM (inactive) | 15.1 µM (inactive) | 20.1 µM (inactive) | 17.9 µM (inactive) | 19.3 µM (inactive)
CCCCn1c(C)c(C(=O)CC)c(C(=O)NCCN2CCN(c3ccccc3Cl)CC2)c1C | 16.3 µM (inactive) | 13.9 µM (inactive) | 20.2 µM (inactive) | 16.7 µM (inactive) | 19.8 µM (inactive) | 18.7 µM (inactive) | 18.1 µM (inactive) | 14.6 µM (inactive) | 21.1 µM (inactive) | 17.6 µM (inactive) | 16.1 µM (inactive) | 18.2 µM (inactive) | 17.9 µM (inactive) | 18.1 µM (inactive) | 19.4 µM (inactive) | 16.1 µM (inactive) | 15.8 µM (inactive) | 19.7 µM (inactive) | 13.4 µM (inactive) | 12.8 µM (inactive)
CN(C)C(=O)OC1=CC2CCC(C1)N2C (stereo not given) | 70.8 µM (inactive) | > 100 µM (inactive) | > 100 µM (inactive) | 71.4 µM (inactive) | > 100 µM (inactive) | 52.8 µM (inactive) | > 100 µM (inactive) | > 100 µM (inactive) | > 100 µM (inactive) | > 100 µM (inactive) | 97.5 µM (inactive) | > 100 µM (inactive) | > 100 µM (inactive) | > 100 µM (inactive) | > 100 µM (inactive) | > 100 µM (inactive) | > 100 µM (inactive) | > 100 µM (inactive) | > 100 µM (inactive) | 52.5 µM (inactive)
